Test results published in the supplement of paper PMC10307832.

What was measured:
Test in all cases: relative viability (nuclei count vs DMSO), 5 days (fraction); higher = more cells survive
[1] = compound: C1=CC=C2C(=C1)N=C(S2)C(C#N)C3=NC(=NC=C3)NCCC4=CN=CC=C4 + COc1cc2c(Oc3ccc(NC(=O)C4(C(=O)Nc5ccc(F)cc5)CC4)cc3F)ccnc2cc1OCCCN1CCOCC1 [Foretinib] (partner 0.25 µM)
In short: (§1)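 Nuclei were stained with Hoechst during a one-step fixation (final 0.05% Triton X-100, 1% formaldehyde, 1 ug/ml Hoechst) carried out 5 days after dosing, then counted on 4× images. The cells, lung cancer lines in 1536-well plates, had been dosed by pin tool the day after seeding with one drug alone or a fixed anchor-drug dose plus five library-drug doses (not always all listed) in √10 steps. Relative viability is the nuclei count in treated wells divided by that in vehicle wells, and each value is the median of duplicate plates.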

NVP-TAE684 + Dasatinib = compound: COc1cc(N2CCC(N3CCN(C)CC3)CC2)ccc1Nc1ncc(Cl)c(Nc2ccccc2S(=O)(=O)C(C)C)n1 [NVP-TAE684] + Cc1nc(Nc2ncc(C(=O)Nc3c(C)cccc3Cl)s2)cc(N2CCN(CCO)CC2)n1 [Dasatinib] (partner 0.075 µM)
In short: as §1

Vandetanib + Alpelisib = compound: COc1cc2/c(=N/c3ccc(Br)cc3F)nc[nH]c2cc1OCC1CCN(C)CC1 [Vandetanib] + Cc1nc(NC(=O)N2CCC[C@H]2C(N)=O)sc1-c1ccnc(C(C)(C)C(F)(F)F)c1 [Alpelisib] (partner 2 µM)
In short: as §1

Vandetanib + Phenformin = compound: COc1cc2/c(=N/c3ccc(Br)cc3F)nc[nH]c2cc1OCC1CCN(C)CC1 [Vandetanib] + N=C(N)NC(=N)NCCc1ccccc1 [Phenformin] (partner 250 µM)
In short: as §1

Cell Line	relative viability ([1]; first compound 0.005 µM)	relative viability ([1]; first compound 0.01581 µM)	relative viability ([1]; first compound 0.05 µM)	relative viability ([1]; first compound 0.1581 µM)	relative viability ([1]; first compound 0.5 µM)	relative viability (NVP-TAE684 + Dasatinib; first compound 0.2 µM)	relative viability (NVP-TAE684 + Dasatinib; first compound 0.6325 µM)	relative viability (NVP-TAE684 + Dasatinib; first compound 2 µM)	relative viability (Vandetanib + Alpelisib; first compound 0.02 µM)	relative viability (Vandetanib + Alpelisib; first compound 0.06325 µM)	relative viability (Vandetanib + Alpelisib; first compound 0.2 µM)	relative viability (Vandetanib + Alpelisib; first compound 0.6325 µM)	relative viability (Vandetanib + Alpelisib; first compound 2 µM)	relative viability (Vandetanib + Phenformin; first compound 0.02 µM)	relative viability (Vandetanib + Phenformin; first compound 0.06325 µM)	relative viability (Vandetanib + Phenformin; first compound 0.2 µM)	relative viability (Vandetanib + Phenformin; first compound 0.6325 µM)	relative viability (Vandetanib + Phenformin; first compound 2 µM)
NCI-H1563	0.85	0.922	1.03	0.952	0.914	0.443	0.423	0.382	0.852	0.958	0.88	0.904	0.916	0.679	0.629	0.695	0.616	0.625
NCI-H1651	0.687	0.872	0.774	0.801	0.757	0.326	0.321	0.146	0.912	0.905	0.953	1.02	0.837	0.304	0.299	0.325	0.353	0.311
NCI-H1666	0.897	0.951	0.971	0.981	0.838	0.813	0.708	0.46	0.89	0.764	0.793	0.668	0.401	0.541	0.559	0.585	0.586	0.562
NCI-H1734	–	0.8	0.913	0.993	0.758	0.47	0.362	0.194	0.673	0.684	0.737	0.756	0.678	0.403	0.369	0.32	0.379	0.39
NCI-H1755	0.915	0.991	0.945	0.936	0.939	0.333	0.276	0.0732	0.935	0.888	0.872	0.896	0.858	0.67	0.593	0.671	0.38	0.609
NCI-H1793	0.714	0.71	0.58	0.775	0.679	0.402	0.321	0.328	0.65	0.635	0.623	0.756	0.512	0.371	0.355	0.328	0.299	0.292
NCI-H1915	1.08	1.11	1.1	1.3	1.05	0.363	0.294	0.255	0.964	1.05	1.04	1.08	1.05	0.366	0.353	0.387	0.372	0.365
NCI-H1944	0.875	0.91	0.853	0.929	0.885	0.212	0.202	0.161	0.781	0.81	0.807	0.757	0.744	0.205	0.195	0.209	0.168	0.188
NCI-H1975	0.779	0.897	0.846	1.08	0.73	0.361	0.225	0.186	0.583	0.573	0.597	0.63	0.477	0.391	0.398	0.391	0.389	0.403
NCI-H1993	0.803	0.768	0.723	0.783	0.665	0.499	0.548	0.581	0.668	0.706	0.648	0.582	0.703	0.523	0.506	0.554	0.605	0.53
NCI-H2009	1.17	1.2	1.18	1.32	1.23	0.207	0.157	0.172	1.16	1.07	1.2	1.15	1.15	0.495	0.462	0.416	0.443	0.361
NCI-H2023	0.708	0.933	0.857	1.09	0.907	0.393	0.254	0.114	0.568	0.49	0.732	0.524	0.486	0.399	0.402	0.354	0.323	0.328
NCI-H2085	0.891	0.811	0.888	1.03	0.979	0.187	0.16	0.162	0.98	0.901	0.873	0.869	0.936	0.769	0.674	0.649	0.668	0.595
NCI-H2087	1.08	1.14	1.1	1.12	0.969	0.573	0.694	0.225	0.953	1.17	1.28	1.04	1.07	0.415	0.45	0.457	0.447	0.44
NCI-H2126	1.14	1.2	1.22	1.19	1.34	0.568	0.39	0.375	0.787	0.74	0.757	0.737	0.674	0.541	0.5	0.522	0.495	0.49
NCI-H2170	0.731	1.03	0.961	1.04	0.861	0.588	0.477	0.368	0.782	0.799	0.746	0.805	0.781	0.342	0.402	0.415	0.409	0.357
NCI-H2228	0.971	0.84	0.993	1.04	0.76	0.206	0.0665	0.0894	0.75	0.587	–	0.712	0.624	0.263	0.281	0.384	0.294	0.303
